From patent US7592005B2, “Monoclonal antibody” (Kirin Beer Kabushiki Kaisha, priority 2000, dated 2009)

System: IM9 cells
Assay: Cellular cytotoxicity on human myeloma cell line IM9 (MTS)
Conditions: read-out: IC50, cellular cytotoxicity, free maytansine derivative
Protocol: In the same manner as in Example 11, the reactivity to the human myeloma cell line IM9 cell (ATCC CCL-159) was investigated. […] Thereafter, a solution of MTS (3-(4,5-dimethylthiazol-2-yl)-5-(3-carboxymethoxyphenyl)-2-(4-sulphophenyl)-2H-tetrazolium, Promega) was added to each well in amounts of 20 μl each, followed by culturing for an additional 2 hours. Subsequently, the absorbance at 490 nm of the surviving cells was assayed using a microplate reader (MTP-300, Corona Electric Co., Ltd.).

## COc1cc2cc(c1Cl)N(C)C(=O)C[C@H](OC(=O)[C@H](C)N(C)C(=O)CCSSC)[C@]1(C)O[C@H]1[C@H](C)[C@@H]1C[C@@](O)(NC(=O)O1)[C@H](OC)/C=C/C=C(\C)C2 [May-SS-Me]
  IC50: 10 nM
